Experimental data as given in publication PMC2949700, “Identification of the full set of Listeria monocytogenes penicillin-binding proteins and characterization of PBPD2 (Lmo2812)” (BMC Microbiology, 2010).
In brackets after ≈: the same amount, converted by molar mass. Marks after values point to notes of the source that are not given here.

Legend:
[1] = molecular target: T1, PBPB1 (PBP3) (Listeria monocytogenes, UniProt Q8Y763); assay: Fluorescent antibiotic binding assay, whole cells; details: read-out: Boc-FL Kd50, 30 min at 37°C, estimated from band fluorescence as a function of Boc-FL concentration
T1 sequence (Q8Y763 entry or part of it): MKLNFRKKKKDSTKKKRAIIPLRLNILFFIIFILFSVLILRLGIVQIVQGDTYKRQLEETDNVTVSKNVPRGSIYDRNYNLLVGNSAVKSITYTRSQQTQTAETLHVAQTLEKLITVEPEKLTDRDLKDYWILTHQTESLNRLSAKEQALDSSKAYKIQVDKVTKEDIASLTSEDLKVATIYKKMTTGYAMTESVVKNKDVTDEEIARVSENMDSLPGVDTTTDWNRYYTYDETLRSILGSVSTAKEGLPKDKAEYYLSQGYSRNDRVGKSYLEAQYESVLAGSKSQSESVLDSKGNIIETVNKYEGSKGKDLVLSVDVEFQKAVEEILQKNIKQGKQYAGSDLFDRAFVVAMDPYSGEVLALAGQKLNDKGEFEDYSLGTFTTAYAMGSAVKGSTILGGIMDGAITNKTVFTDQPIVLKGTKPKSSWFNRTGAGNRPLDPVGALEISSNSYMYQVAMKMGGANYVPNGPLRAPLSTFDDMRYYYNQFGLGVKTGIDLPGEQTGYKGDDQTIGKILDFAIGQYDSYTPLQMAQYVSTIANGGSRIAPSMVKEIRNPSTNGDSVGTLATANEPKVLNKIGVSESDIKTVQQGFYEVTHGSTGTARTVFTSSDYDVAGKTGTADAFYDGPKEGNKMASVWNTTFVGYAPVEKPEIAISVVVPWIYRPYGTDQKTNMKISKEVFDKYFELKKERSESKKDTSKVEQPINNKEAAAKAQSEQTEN
Description: (§1) PBPs form a covalent complex with β-lactam antibiotics. When fluorescent β-lactams are employed, these proteins can be visualized immediately following SDS-PAGE [17]. Total protein from whole cells or a cell wall extract of L. monocytogenes EGD were incubated with different concentrations of Boc-FL, Bocillin-650 (Boc-650) or Ampicillin-Alexa430 (Amp-430) for 30 min at 37°C. The highest affinity binding was obtained with Boc-FL and bands identified using this compound in the whole cell assay are shown in Figure 1. PBPs A1, B2, B1, A2, B3, D1, C1 and C2 were also identified with Boc-650 and Amp-430 (data not shown). Two types of non-specific band were also observed (lane 1, 0 μM Boc-FL) and they represent the natural intrinsic fluorescence of other proteins in the cell extract. However, the bands that are absent in lane 8 (ampicillin 100 μg/ml, 50 μM Boc-FL) compared with lane 7 (50 μM Boc-FL) represent specific PBPs. Those bands that completely disappeared (PBPB1, PBPD1), partially disappeared (PBPA1, PBPB2, PBPA2 and PBPB3) or remained present (PBPC1 and PBPC2) reflect total, partial and no binding of ampicillin, respectively. The results of an experiment examining saturation with 50 μM Boc-FL, the binding capacity of each PBP for Boc-FL and the affinity of the PBPs for ampicillin (Amp) are presented in Table 2. These assays involved incubation of whole cell with ampicillin followed by a similar incubation with Boc-FL. Therefore, only those PBPs with no or low affinity for ampicillin would be able to bind Boc-FL during the second incubation. The deacylation rate for the PBPs is actually extremely low, which permitted their detection in the gel for several hours after binding.
(§2) Figure 1 Complete set of PBPs identified with Boc-FL in whole cells of L. monocytogenes. Samples of whole cells (100 μg of total protein) were labeled with Boc-FL at concentrations of 0 (1), 0.5 (2), 1 (3), 2.5 (4), 5 (5), 10 (6), 50 μM (7) and 50 μM plus 100 μg/ml ampicillin (8). Labeled bands were detected directly on the gel, quantified, and their molecular mass estimated. The affinity of each band for Boc-FL (ID50) was estimated from their fluorescence as a function of the concentration of Boc-FL. The name of the PBP corresponding to each band is indicated on the right, while the positions of molecular weight markers (bars) and unspecific bands (arrowheads) are shown on the left.
(§3) Total whole cell proteins or purified recombinant protein resuspended in 50 mM NaPi buffer, pH 7.0 were labeled by incubation at 37°C for 30 min with different concentrations of Boc-FL (Molecular Probes), Boc-650 (Molecular Probes) or Amp-430 (prepared in the laboratory by coupling ampicillin to Alexa-430), and then separated on a 10% acrylamide, 3.3% cross-linkage SDS-PAGE gel. To avoid degradation of the fluorescent β-lactam antibiotics by β-lactamases, samples were incubated at 37°C with clavulanic acid at a final concentration of 10 μg/ml or EDTA at a final concentration of 10 mM for 30 min before labeling, where appropriate. Competition experiments were carried out by preincubation of the samples with ampicillin (100 μg/ml) for 30 min at 37°C, before adding the fluorescent antibiotic. […] PBPs were visualized directly on the polyacryloamide gel by fluorescence using a Typhoon 9410 imager (Amersham Biosciences) with excitation wavelengths of 588, 633 or 457 nm and emission filters 520BP40, 670BP30 or 555BP20 for Boc-FL, Boc-650 and Amp-430, respectively.

[2] = molecular target: T2, PBPA2 (PBP4) (Listeria monocytogenes, UniProt Q8Y547); assay: Fluorescent antibiotic binding assay, whole cells; details: read-out: Boc-FL Kd50, 30 min at 37°C, estimated from band fluorescence as a function of Boc-FL concentration
T2 sequence (Q8Y547 entry or part of it): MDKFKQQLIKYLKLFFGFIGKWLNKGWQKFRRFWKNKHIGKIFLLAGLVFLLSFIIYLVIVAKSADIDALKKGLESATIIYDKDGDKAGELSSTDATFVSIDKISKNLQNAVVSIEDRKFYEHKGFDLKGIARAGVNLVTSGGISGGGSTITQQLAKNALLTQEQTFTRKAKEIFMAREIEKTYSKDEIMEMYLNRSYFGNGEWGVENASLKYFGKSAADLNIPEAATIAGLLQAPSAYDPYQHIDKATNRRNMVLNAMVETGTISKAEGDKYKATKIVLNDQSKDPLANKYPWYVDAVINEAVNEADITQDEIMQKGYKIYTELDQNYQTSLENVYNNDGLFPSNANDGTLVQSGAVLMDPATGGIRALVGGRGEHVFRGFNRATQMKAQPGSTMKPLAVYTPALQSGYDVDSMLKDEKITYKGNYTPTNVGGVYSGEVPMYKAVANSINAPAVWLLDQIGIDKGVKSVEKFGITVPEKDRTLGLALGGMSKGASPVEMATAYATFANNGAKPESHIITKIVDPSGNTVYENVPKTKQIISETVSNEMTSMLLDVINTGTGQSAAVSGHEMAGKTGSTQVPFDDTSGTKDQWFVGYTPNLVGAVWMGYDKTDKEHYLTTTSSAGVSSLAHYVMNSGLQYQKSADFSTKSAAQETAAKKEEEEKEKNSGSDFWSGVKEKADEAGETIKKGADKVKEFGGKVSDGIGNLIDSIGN
Description: as §1, §2, §3

[3] = molecular target: T3, PBPA1 (PBP1) (Listeria monocytogenes, UniProt Q8Y610); assay: Fluorescent antibiotic binding assay, whole cells; details: read-out: Boc-FL Kd50, 30 min at 37°C, estimated from band fluorescence as a function of Boc-FL concentration
T3 sequence (Q8Y610 entry or part of it): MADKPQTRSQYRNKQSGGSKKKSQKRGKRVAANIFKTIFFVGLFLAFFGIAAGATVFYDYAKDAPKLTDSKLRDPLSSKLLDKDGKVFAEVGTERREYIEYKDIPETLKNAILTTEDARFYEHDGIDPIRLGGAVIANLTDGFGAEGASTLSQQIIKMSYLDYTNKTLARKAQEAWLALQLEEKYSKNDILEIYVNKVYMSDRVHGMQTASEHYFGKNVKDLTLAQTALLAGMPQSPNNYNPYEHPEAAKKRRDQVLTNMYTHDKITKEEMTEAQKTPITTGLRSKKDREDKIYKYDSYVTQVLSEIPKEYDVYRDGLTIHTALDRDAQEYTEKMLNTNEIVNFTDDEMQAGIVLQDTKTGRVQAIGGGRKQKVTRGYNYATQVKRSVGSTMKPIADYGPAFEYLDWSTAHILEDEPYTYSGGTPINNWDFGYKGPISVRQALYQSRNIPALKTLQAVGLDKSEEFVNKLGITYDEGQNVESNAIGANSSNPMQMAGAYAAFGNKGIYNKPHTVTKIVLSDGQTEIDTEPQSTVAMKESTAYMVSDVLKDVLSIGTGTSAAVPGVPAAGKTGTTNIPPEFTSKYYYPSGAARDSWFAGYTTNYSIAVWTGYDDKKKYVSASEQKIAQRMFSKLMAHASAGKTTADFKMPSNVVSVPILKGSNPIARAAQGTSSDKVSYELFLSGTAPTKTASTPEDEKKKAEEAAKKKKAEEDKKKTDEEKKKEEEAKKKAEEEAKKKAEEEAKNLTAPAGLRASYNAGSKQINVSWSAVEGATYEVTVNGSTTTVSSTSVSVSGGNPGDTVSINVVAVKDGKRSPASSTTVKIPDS
Description: as §1, §2, §3

[4] = molecular target: T4, PBPD1 (PBP5) (Listeria monocytogenes, UniProt Q8Y3S7); assay: Fluorescent antibiotic binding assay, whole cells; details: read-out: Boc-FL Kd50, 30 min at 37°C, estimated from band fluorescence as a function of Boc-FL concentration
T4 sequence (Q8Y3S7 entry or part of it): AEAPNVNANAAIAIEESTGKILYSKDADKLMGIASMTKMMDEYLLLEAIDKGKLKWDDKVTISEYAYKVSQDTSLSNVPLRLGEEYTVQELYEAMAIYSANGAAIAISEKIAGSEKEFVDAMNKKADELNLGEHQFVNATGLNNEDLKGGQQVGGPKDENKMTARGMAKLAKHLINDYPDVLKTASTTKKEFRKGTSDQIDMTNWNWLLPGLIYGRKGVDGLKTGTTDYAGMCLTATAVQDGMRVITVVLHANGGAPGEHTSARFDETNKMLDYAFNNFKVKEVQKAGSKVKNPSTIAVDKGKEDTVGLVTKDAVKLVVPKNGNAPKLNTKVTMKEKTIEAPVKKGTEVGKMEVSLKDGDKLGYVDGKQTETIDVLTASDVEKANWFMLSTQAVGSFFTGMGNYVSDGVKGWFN
Description: as §1, §2, §3

[5] = molecular target: T5, PBPB2 (PBP2) (Listeria monocytogenes, UniProt Q8Y5L8); assay: Fluorescent antibiotic binding assay, whole cells; details: read-out: Boc-FL Kd50, 30 min at 37°C, estimated from band fluorescence as a function of Boc-FL concentration
T5 sequence (Q8Y5L8 entry or part of it): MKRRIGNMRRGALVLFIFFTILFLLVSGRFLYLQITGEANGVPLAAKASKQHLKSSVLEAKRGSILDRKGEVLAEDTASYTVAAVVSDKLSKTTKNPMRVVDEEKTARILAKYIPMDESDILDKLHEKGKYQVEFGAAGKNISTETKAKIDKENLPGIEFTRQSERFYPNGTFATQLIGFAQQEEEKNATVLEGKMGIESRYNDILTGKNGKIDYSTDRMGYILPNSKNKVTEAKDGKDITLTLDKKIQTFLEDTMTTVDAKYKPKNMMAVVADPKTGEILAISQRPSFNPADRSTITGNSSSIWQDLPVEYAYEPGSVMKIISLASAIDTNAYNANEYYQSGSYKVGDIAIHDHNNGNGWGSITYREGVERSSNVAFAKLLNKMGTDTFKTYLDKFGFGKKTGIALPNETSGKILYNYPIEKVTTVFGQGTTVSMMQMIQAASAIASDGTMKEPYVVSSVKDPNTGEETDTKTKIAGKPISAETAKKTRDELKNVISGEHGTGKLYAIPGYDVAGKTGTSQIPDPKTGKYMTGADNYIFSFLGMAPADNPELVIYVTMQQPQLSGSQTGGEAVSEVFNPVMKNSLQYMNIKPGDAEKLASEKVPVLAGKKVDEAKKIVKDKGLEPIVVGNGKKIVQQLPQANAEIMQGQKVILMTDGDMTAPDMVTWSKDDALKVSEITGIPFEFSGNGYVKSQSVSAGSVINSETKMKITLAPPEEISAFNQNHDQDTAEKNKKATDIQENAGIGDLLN
Description: as §1, §2, §3

[6] = molecular target: T6, purified recombinant Lmo2812 (PBPD2) (Listeria monocytogenes, UniProt Q8Y3M3); assay: Fluorescent antibiotic binding assay, purified recombinant protein
Description: The purified protein was incubated with different concentrations of Boc-FL (0.25, 0.5, 2.5, 5 and 10 μM). […] Lmo2812 was the major band on gels, with a slower migrating minor band thought to represent a dimeric form (Figure 2).
Figure 2 Purified recombinant L. monocytogenes Lmo2812 (PBPD2) identified with Boc-FL. Samples of purified recombinant Lmo2812 (10 μg) were labeled with Boc-FL at concentrations of 0 (1), 0.25 (2), 0.5 (3), 2.5 (4), 5 (5) and 10 μM (6). Labeled bands were detected directly on the gel, quantified and their molecular mass estimated. The affinity of the bands for Boc-FL (Kd50) was estimated from their fluorescence as a function of the concentration of Boc-FL. The names of the bands are indicated on the right, and the positions of the molecular weight markers are shown on the left.
The β-lactam binding capacity of Lmo2812 was evaluated with three different fluorescent antibiotics: Boc-FL, Boc-650 and Amp-430.
Total whole cell proteins or purified recombinant protein resuspended in 50 mM NaPi buffer, pH 7.0 were labeled by incubation at 37°C for 30 min with different concentrations of Boc-FL (Molecular Probes), Boc-650 (Molecular Probes) or Amp-430 (prepared in the laboratory by coupling ampicillin to Alexa-430), and then separated on a 10% acrylamide, 3.3% cross-linkage SDS-PAGE gel. To avoid degradation of the fluorescent β-lactam antibiotics by β-lactamases, samples were incubated at 37°C with clavulanic acid at a final concentration of 10 μg/ml or EDTA at a final concentration of 10 mM for 30 min before labeling, where appropriate. Competition experiments were carried out by preincubation of the samples with ampicillin (100 μg/ml) for 30 min at 37°C, before adding the fluorescent antibiotic. The samples were then further incubated for 30 min at 37°C. PBPs were visualized directly on the polyacryloamide gel by fluorescence using a Typhoon 9410 imager (Amersham Biosciences) with excitation wavelengths of 588, 633 or 457 nm and emission filters 520BP40, 670BP30 or 555BP20 for Boc-FL, Boc-650 and Amp-430, respectively. […]

[7] = molecular target: T6, purified recombinant Lmo2812 (PBPD2); assay: Competition binding assay (ampicillin preincubation, then Boc-FL), purified recombinant protein; details: purified recombinant Lmo2812 preincubated with 100 μg/ml ampicillin
Description: (§4) Total whole cell proteins or purified recombinant protein resuspended in 50 mM NaPi buffer, pH 7.0 were labeled by incubation at 37°C for 30 min with different concentrations of Boc-FL (Molecular Probes), Boc-650 (Molecular Probes) or Amp-430 (prepared in the laboratory by coupling ampicillin to Alexa-430), and then separated on a 10% acrylamide, 3.3% cross-linkage SDS-PAGE gel. To avoid degradation of the fluorescent β-lactam antibiotics by β-lactamases, samples were incubated at 37°C with clavulanic acid at a final concentration of 10 μg/ml or EDTA at a final concentration of 10 mM for 30 min before labeling, where appropriate. Competition experiments were carried out by preincubation of the samples with ampicillin (100 μg/ml) for 30 min at 37°C, before adding the fluorescent antibiotic. The samples were then further incubated for 30 min at 37°C. PBPs were visualized directly on the polyacryloamide gel by fluorescence using a Typhoon 9410 imager (Amersham Biosciences) with excitation wavelengths of 588, 633 or 457 nm and emission filters 520BP40, 670BP30 or 555BP20 for Boc-FL, Boc-650 and Amp-430, respectively.

[8] = molecular target: PBPB3 (Listeria monocytogenes, UniProt Q8Y9T2); assay: Competition binding assay (ampicillin preincubation, then Boc-FL), whole cells
Chain of PBPB3 (Q8Y9T2 entry or part of it): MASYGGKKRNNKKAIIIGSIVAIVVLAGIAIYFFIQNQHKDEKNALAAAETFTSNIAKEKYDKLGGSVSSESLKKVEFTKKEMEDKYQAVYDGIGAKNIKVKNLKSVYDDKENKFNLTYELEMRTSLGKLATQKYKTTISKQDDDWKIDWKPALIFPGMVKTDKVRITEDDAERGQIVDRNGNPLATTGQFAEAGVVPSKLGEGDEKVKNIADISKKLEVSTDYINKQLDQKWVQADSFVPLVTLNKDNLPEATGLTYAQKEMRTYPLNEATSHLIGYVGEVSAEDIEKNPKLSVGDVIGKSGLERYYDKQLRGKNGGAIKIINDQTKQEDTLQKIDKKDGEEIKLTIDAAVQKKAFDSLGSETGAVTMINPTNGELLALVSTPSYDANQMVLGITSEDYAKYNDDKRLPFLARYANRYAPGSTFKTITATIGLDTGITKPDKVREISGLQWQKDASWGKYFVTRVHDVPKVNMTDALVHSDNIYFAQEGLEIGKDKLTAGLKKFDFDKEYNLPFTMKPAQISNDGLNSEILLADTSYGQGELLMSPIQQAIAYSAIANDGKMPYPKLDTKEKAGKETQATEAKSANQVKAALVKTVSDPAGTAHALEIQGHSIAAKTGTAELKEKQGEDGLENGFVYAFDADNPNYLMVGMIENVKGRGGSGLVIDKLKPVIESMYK
Description: as §1, §2, §4

[9] = molecular target: PBPC2 (Listeria monocytogenes, UniProt Q8Y5Y7); assay: as above
Chain of PBPC2 (Q8Y5Y7 entry or part of it): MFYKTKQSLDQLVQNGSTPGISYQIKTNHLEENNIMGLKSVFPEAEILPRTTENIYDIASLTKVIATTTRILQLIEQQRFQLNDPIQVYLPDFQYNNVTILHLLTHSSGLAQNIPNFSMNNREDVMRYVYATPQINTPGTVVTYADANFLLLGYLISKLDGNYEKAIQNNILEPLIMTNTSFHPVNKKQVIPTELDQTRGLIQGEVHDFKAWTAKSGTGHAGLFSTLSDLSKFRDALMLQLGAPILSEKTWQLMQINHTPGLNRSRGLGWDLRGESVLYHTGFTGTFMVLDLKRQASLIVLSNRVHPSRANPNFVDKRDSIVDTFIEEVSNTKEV
Description: as §1, §2, §4

[10] = molecular target: T1, PBPB1 (PBP3); assay: as above
Description: as §1, §2, §4

[11] = molecular target: T2, PBPA2 (PBP4); assay: as above
Description: as §1, §2, §4

[12] = molecular target: T3, PBPA1 (PBP1); assay: as above
Description: as §1, §2, §4

[13] = molecular target: T4, PBPD1 (PBP5); assay: as above
Description: as §1, §2, §4

[14] = molecular target: PBPC1 (Listeria monocytogenes, UniProt Q8Y9I8); assay: as above
Chain of PBPC1 (Q8Y9I8 entry or part of it): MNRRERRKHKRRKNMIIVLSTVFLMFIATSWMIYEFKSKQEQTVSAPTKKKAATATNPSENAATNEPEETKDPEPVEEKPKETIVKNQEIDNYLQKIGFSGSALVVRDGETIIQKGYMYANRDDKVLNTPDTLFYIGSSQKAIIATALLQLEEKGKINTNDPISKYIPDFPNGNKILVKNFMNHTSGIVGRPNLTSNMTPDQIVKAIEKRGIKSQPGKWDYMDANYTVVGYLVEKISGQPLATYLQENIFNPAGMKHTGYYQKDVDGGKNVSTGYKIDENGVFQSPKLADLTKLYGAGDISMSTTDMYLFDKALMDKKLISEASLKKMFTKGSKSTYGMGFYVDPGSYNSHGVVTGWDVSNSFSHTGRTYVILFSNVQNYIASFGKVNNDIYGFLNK
Description: as §1, §2, §4

[15] = molecular target: T5, PBPB2 (PBP2); assay: as above
Description: as §1, §2, §4

[16] = tested on: L. monocytogenes AD07 (Δlmo2812 Δlmo2754); assay: Microdilution MIC test; format: cell-based, Listeria monocytogenes; details: Listeria monocytogenes
Description: (§5) To determine the effect of these mutations on cell morphology, the strains EGD, KD2812 and DA07 were analyzed by scanning electron microscopy (SEM). […] At 30°C the average cell length compared to strain EGD was increased by 38.5% in strain KD2812 and by 44.8% in the double mutant strain. The respective values at 37°C were 37.5% and 43%. […] The variant cells were characteristically curved with a bend at either one or both ends and subterminal constrictions. The number of cells with altered morphology was increased as the growth temperature was raised (Figure 3; b, e, h). Cell bending was more pronounced in the population of AD07 mutant cells (Figure 3; c, f, i). […] Similar results were found for a mutant of L. monocytogenes lacking PBP5 (PBPD1) examined in a previous study.
(§6) Microdilution tests were performed using cation-adjusted Mueller-Hinton broth (CAMHB) supplemented with 5% lysed horse blood containing two-fold dilutions of the antimicrobial agents. These mixtures were dispensed in 100 μl aliquots into plastic 96-well plates. To prepare inocula, a single colony of each strain from a TSBYE plate was transferred into 10 ml of the same medium and incubated for 24 h at 37°C. These cultures were serially diluted in CAMHB to a concentration of 10^5 cfu/ml and 100 μl aliquots were added to the microdilution plates. The plates were incubated for 18-20 h at 37°C before the reading of the MIC endpoints. The MIC was the lowest antibiotic concentration at which visible growth was inhibited.

[17] = tested on: L. monocytogenes EGD; assay: Microdilution MIC test; format: cell-based, Listeria monocytogenes; details: Listeria monocytogenes
Description: as §5, §6

[18] = tested on: L. monocytogenes KD2812 (Δlmo2812); assay: Microdilution MIC test; format: cell-based, Listeria monocytogenes; details: Listeria monocytogenes
Description: as §5, §6

[19] = ampicillin 100 μg/ml, 50 μM Boc-FL, Figure 1 lane 8 vs lane 7
[20] = preincubated with 100 μg/ml ampicillin, then 50 μM Boc-FL

Cc1cc(C)n2c1C=C1C=CC(CCC(=O)Nc3ccc(OCC(=O)N[C@@H]4C(=O)N5[C@@H]4SC(C)(C)[C@@H]5C(=O)O)cc3)=[N+]1[B-]2(F)F [Boc-FL, Bocillin-FL]
Kd [1]: 0.25 µM | Kd [2]: 0.25 µM | Kd [3]: > 10 µM | Kd [4]: 5 µM | Kd [5]: 0.25 µM | Kd [6]: 2.5 µM

CC1(C)S[C@@H]2[C@H](NC(=O)[C@H](N)c3ccccc3)C(=O)N2[C@H]1C(=O)O [ampicillin]
percentage of Boc-FL binding capacity remaining [7]: 0^b % | binding of ampicillin (disappearance of Boc-FL band) [8, 19]: partial | percentage of Boc-FL binding capacity remaining [8, 20]: 95% | binding of ampicillin (disappearance of Boc-FL band) [9, 19]: no binding | percentage of Boc-FL binding capacity remaining [9, 20]: 100% | inhibition of Boc-FL binding ([10]; Amp at 100 μg/ml): completely inhibited | binding of ampicillin (disappearance of Boc-FL band) [10, 19]: total | percentage of Boc-FL binding capacity remaining [10, 20]: 0% | binding of ampicillin (disappearance of Boc-FL band) [11, 19]: partial | percentage of Boc-FL binding capacity remaining [11, 20]: 90% | binding of ampicillin (disappearance of Boc-FL band) [12, 19]: partial | percentage of Boc-FL binding capacity remaining [12, 20]: 95% | inhibition of Boc-FL binding ([13]; Amp at 100 μg/ml): completely inhibited | binding of ampicillin (disappearance of Boc-FL band) [13, 19]: total | percentage of Boc-FL binding capacity remaining [13, 20]: 0% | binding of ampicillin (disappearance of Boc-FL band) [14, 19]: no binding | percentage of Boc-FL binding capacity remaining [14, 20]: 100% | binding of ampicillin (disappearance of Boc-FL band) [15, 19]: partial | percentage of Boc-FL binding capacity remaining [15, 20]: 90% | MIC [16]: 0.16 mg/L (≈ 0.458 µM) | MIC [17]: 0.31 mg/L (≈ 0.887 µM) | MIC [18]: 0.31 mg/L (≈ 0.887 µM)
